Measurements reported in the supplement of paper PMC4862054.

What was measured:
Settings in all cases: incubation time: 72 h
DU-4475 [1] = assay: normalised viability (% of control), CellTiter-Blue; higher = more viable cells (about 100 = DMSO control)
Method in brief: (§1)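 Breast cancer cell lines in 20 µl suspension were seeded onto 384-well plates pre-loaded with compound dissolved in 5 µl medium, then incubated 72 h. CellTiter-Blue reagent (2.5 µl) was added for 2 h at 37 °C and fluorescence read at 560/590 nm. Each plate was normalised to vehicle (100) and a positive kill control (0), with Z'-factor quality control. The value is normalised viability at one listed concentration of the series.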

MDA-MB-453 [2] = assay: as above
Method in brief: as §1

CAL-120 [3] = assay: as above
Method in brief: as §1

HCC1143 [4] = assay: drug sensitivity score (DSS), CellTox Green (DSS (AUC-based score)); higher = stronger drug effect (viability inhibition or cytotoxicity); extreme values may be limits of the assay
Method in brief: (§2)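 Normalisation on every plate relied on 0.1 % DMSO and a positive kill control. The plates, 384-well format, held compound at 5 concentrations 10-fold apart across a compound-specific 10,000-fold range, and breast cancer cell lines in 20 µl suspension were incubated on them for 72 h before CellTox Green and then CellTiter-Glo readings. The drug sensitivity score derives from the area under the fitted dose-response curve.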

CAL-51 [5] = assay: as above
Method in brief: as §2

MDA-MB-453 [6] = assay: as above
Method in brief: as §2

HCC1143 [7] = assay: normalised viability (% of control), CellTiter-Blue; higher = more viable cells (about 100 = DMSO control)
Method in brief: as §1

CAL-51 [8] = assay: as above
Method in brief: as §1

HCC1937 = assay: as above
Method in brief: as §1

MDA-MB-436 = assay: as above
Method in brief: as §1

MDA-MB-231 = assay: as above
Method in brief: as §1

DU-4475 [9] = assay: as above; remark: listed apart in the source
Method in brief: as §1

BT-549 = assay: as above
Method in brief: as §1

Hs578T = assay: as above
Method in brief: as §1

SK-BR-3 = assay: as above
Method in brief: as §1

CAL-85-1 = assay: as above
Method in brief: as §1

MDA-MB-453 [10] = assay: as above; remark: listed apart in the source
Method in brief: as §1

BT-474 = assay: as above
Method in brief: as §1

HCC1599 = assay: as above
Method in brief: as §1

HDQ-P1 = assay: as above
Method in brief: as §1

MFM-223 = assay: as above
Method in brief: as §1

CAL-120 [11] = assay: as above; remark: listed apart in the source
Method in brief: as §1

MDA-MB-468 = assay: as above
Method in brief: as §1

CAL-148 = assay: as above
Method in brief: as §1

## COc1cc(CCc2cc(NC(=O)c3ccc(N4CC(C)NC(C)C4)cc3)n[nH]2)cc(OC)c1 (stereo not given) [AZD4547]
DU-4475 [1]; 1 nM
  normalised viability: 100%
MDA-MB-453 [2]; 1 nM
  normalised viability: 107%
CAL-120 [3]; 10 nM
  normalised viability: 94%
HCC1143 [4]
  drug sensitivity score: 3.67
CAL-51 [5]
  drug sensitivity score: 0
MDA-MB-453 [6]
  drug sensitivity score: 0
HCC1143 [7]; 1 nM
  normalised viability: 94.3%
HCC1143 [7]; 100 nM
  normalised viability: 87.9%
HCC1143 [7]; 1000 nM
  normalised viability: 93%
CAL-51 [8]; 0.3 nM
  normalised viability: 120%
CAL-51 [8]; 3 nM
  normalised viability: 107%
CAL-51 [8]; 10 nM
  normalised viability: 99.8%
HCC1937; 1 nM
  normalised viability: 157%
HCC1937; 100 nM
  normalised viability: 103%
HCC1937; 1000 nM
  normalised viability: 115%
MDA-MB-436; 1 nM
  normalised viability: 105%
MDA-MB-436; 100 nM
  normalised viability: 104%
MDA-MB-436; 1000 nM
  normalised viability: 109%
MDA-MB-231; 1 nM
  normalised viability: 110%
MDA-MB-231; 100 nM
  normalised viability: 105%
MDA-MB-231; 1000 nM
  normalised viability: 113%
DU-4475 [9]; 0.3 nM
  normalised viability: 92.3%
DU-4475 [9]; 3 nM
  normalised viability: 84%
DU-4475 [9]; 10 nM
  normalised viability: 103%
BT-549; 1 nM
  normalised viability: 89.1%
BT-549; 100 nM
  normalised viability: 105%
BT-549; 1000 nM
  normalised viability: 112%
Hs578T; 1 nM
  normalised viability: 102%
Hs578T; 100 nM
  normalised viability: 91.2%
Hs578T; 1000 nM
  normalised viability: 122%
SK-BR-3; 1 nM
  normalised viability: 112%
SK-BR-3; 100 nM
  normalised viability: 113%
SK-BR-3; 1000 nM
  normalised viability: 105%
CAL-85-1; 0.3 nM
  normalised viability: 91%
CAL-85-1; 3 nM
  normalised viability: 90%
CAL-85-1; 10 nM
  normalised viability: 94.6%
MDA-MB-453 [10]; 0.3 nM
  normalised viability: 119%
MDA-MB-453 [10]; 3 nM
  normalised viability: 91.5%
MDA-MB-453 [10]; 10 nM
  normalised viability: 95.8%
BT-474; 1 nM
  normalised viability: 121%
BT-474; 100 nM
  normalised viability: 119%
BT-474; 1000 nM
  normalised viability: 128%
HCC1599; 1 nM
  normalised viability: 92.5%
HCC1599; 100 nM
  normalised viability: 77.4%
HCC1599; 1000 nM
  normalised viability: 18.8%
HDQ-P1; 0.3 nM
  normalised viability: 113%
HDQ-P1; 3 nM
  normalised viability: 120%
HDQ-P1; 10 nM
  normalised viability: 117%
MFM-223; 1 nM
  normalised viability: 91%
MFM-223; 100 nM
  normalised viability: 50.4%
MFM-223; 1000 nM
  normalised viability: 12.3%
CAL-120 [11]; 1 nM
  normalised viability: 86%
CAL-120 [11]; 100 nM
  normalised viability: 80.4%
CAL-120 [11]; 1000 nM
  normalised viability: 65.1%
MDA-MB-468; 1 nM
  normalised viability: 113%
MDA-MB-468; 100 nM
  normalised viability: 105%
MDA-MB-468; 1000 nM
  normalised viability: 105%
CAL-148; 0.3 nM
  normalised viability: 97.9%
CAL-148; 3 nM
  normalised viability: 93.7%
CAL-148; 10 nM
  normalised viability: 89.7%

## CCC/C=C/C=C/C(=O)O[C@H]1/C(=C/C(=O)OC)C[C@H]2C[C@H]([C@@H](C)O)OC(=O)C[C@H](O)C[C@@H]3C[C@H](OC(C)=O)C(C)(C)[C@](O)(C[C@@H]4C/C(=C/C(=O)OC)C[C@H](/C=C/C(C)(C)[C@]1(O)O2)O4)O3 [Bryostatin 1]
DU-4475 [1]; 0.1 nM
  normalised viability: 92.1%
MDA-MB-453 [2]; 0.1 nM
  normalised viability: 99%
CAL-120 [3]; 1 nM
  normalised viability: 85.4%
HCC1143 [4]
  drug sensitivity score: 0
CAL-51 [5]
  drug sensitivity score: 0
MDA-MB-453 [6]
  drug sensitivity score: 0
HCC1143 [7]; 0.1 nM
  normalised viability: 85.3%
HCC1143 [7]; 10 nM
  normalised viability: 80.5%
HCC1143 [7]; 100 nM
  normalised viability: 80.5%
CAL-51 [8]; 0.03 nM
  normalised viability: 108%
CAL-51 [8]; 0.3 nM
  normalised viability: 104%
CAL-51 [8]; 1 nM
  normalised viability: 108%
HCC1937; 10 nM
  normalised viability: 108%
HCC1937; 1000 nM
  normalised viability: 80.2%
HCC1937; 10000 nM
  normalised viability: 103%
MDA-MB-436; 0.1 nM
  normalised viability: 110%
MDA-MB-436; 10 nM
  normalised viability: 103%
MDA-MB-436; 100 nM
  normalised viability: 127%
MDA-MB-231; 10 nM
  normalised viability: 101%
MDA-MB-231; 1000 nM
  normalised viability: 82.8%
MDA-MB-231; 10000 nM
  normalised viability: 90.2%
DU-4475 [9]; 0.03 nM
  normalised viability: 92.7%
DU-4475 [9]; 0.3 nM
  normalised viability: 79.2%
DU-4475 [9]; 1 nM
  normalised viability: 91.2%
BT-549; 0.1 nM
  normalised viability: 100%
BT-549; 10 nM
  normalised viability: 87.9%
BT-549; 100 nM
  normalised viability: 100%
Hs578T; 0.1 nM
  normalised viability: 95.1%
Hs578T; 10 nM
  normalised viability: 97%
Hs578T; 100 nM
  normalised viability: 106%
SK-BR-3; 10 nM
  normalised viability: 95%
SK-BR-3; 1000 nM
  normalised viability: 67%
SK-BR-3; 10000 nM
  normalised viability: 61.4%
CAL-85-1; 0.03 nM
  normalised viability: 95.3%
CAL-85-1; 0.3 nM
  normalised viability: 107%
CAL-85-1; 1 nM
  normalised viability: 117%
MDA-MB-453 [10]; 0.03 nM
  normalised viability: 105%
MDA-MB-453 [10]; 0.3 nM
  normalised viability: 95%
MDA-MB-453 [10]; 1 nM
  normalised viability: 94.8%
BT-474; 10 nM
  normalised viability: 109%
BT-474; 1000 nM
  normalised viability: 109%
BT-474; 10000 nM
  normalised viability: 102%
HCC1599; 0.1 nM
  normalised viability: 112%
HCC1599; 10 nM
  normalised viability: 116%
HCC1599; 100 nM
  normalised viability: 115%
HDQ-P1; 0.03 nM
  normalised viability: 104%
HDQ-P1; 0.3 nM
  normalised viability: 106%
HDQ-P1; 1 nM
  normalised viability: 107%
MFM-223; 0.1 nM
  normalised viability: 97%
MFM-223; 10 nM
  normalised viability: 91.2%
MFM-223; 100 nM
  normalised viability: 94.6%
CAL-120 [11]; 0.1 nM
  normalised viability: 90.7%
CAL-120 [11]; 10 nM
  normalised viability: 89.1%
CAL-120 [11]; 100 nM
  normalised viability: 93.4%
MDA-MB-468; 10 nM
  normalised viability: 99.6%
MDA-MB-468; 1000 nM
  normalised viability: 104%
MDA-MB-468; 10000 nM
  normalised viability: 94.4%
CAL-148; 0.03 nM
  normalised viability: 91.6%
CAL-148; 0.3 nM
  normalised viability: 101%
CAL-148; 1 nM
  normalised viability: 88%
